Assay results taken from US8067445B2, “N,N-disubstituted aminoalkylbiphenyl antagonists of prostaglandin D2 receptors” (Panmira Pharmaceuticals, LLC, priority 2008, dated 2011).

Key:
[1] = biological target: T1, human DP1 receptor (Homo sapiens, UniProt Q13258); assay: DP1 radioligand binding assay ([3H]BWA868C, platelet membranes); settings: [3H]BWA868C binding, human platelet membranes; read-out: hDP1
T1 construct: tissue Biological Specialty Corporation; host or cells: human platelet membranes
T1 sequence (Q13258 1-359): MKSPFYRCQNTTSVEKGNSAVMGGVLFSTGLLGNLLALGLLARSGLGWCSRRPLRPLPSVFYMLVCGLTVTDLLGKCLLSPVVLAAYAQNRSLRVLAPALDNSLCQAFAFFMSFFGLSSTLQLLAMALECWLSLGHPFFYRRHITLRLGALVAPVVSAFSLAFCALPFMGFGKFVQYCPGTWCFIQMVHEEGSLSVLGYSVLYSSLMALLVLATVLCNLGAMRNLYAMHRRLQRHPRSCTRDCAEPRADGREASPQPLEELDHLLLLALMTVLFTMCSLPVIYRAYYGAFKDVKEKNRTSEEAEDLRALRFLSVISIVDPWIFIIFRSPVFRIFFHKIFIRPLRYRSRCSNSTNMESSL
Procedure, shortened: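 Human platelet membranes (20 μg protein/well) incubated 60 min at room temperature with 2 nM [3H]BWA868C and compound in 50 mM Hepes, 10 mM MnCl2, 1 mM EDTA, pH 7.4, ± 0.2% human serum albumin. Bound radioactivity measured after filtration; nonspecific binding defined with 10 μM BWA868C; IC50 from titration curves.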

[2] = biological target: T2, human DP2 receptor (Homo sapiens, UniProt Q9Y5Y4); assay: DP2/CRTH2 radioligand binding assay ([3H]PGD2); settings: [3H]PGD2 binding, membranes of HEK293 cells expressing human DP2; read-out: hDP2
T2 construct: expressed in transfected cells
T2 sequence (Q9Y5Y4 1-395): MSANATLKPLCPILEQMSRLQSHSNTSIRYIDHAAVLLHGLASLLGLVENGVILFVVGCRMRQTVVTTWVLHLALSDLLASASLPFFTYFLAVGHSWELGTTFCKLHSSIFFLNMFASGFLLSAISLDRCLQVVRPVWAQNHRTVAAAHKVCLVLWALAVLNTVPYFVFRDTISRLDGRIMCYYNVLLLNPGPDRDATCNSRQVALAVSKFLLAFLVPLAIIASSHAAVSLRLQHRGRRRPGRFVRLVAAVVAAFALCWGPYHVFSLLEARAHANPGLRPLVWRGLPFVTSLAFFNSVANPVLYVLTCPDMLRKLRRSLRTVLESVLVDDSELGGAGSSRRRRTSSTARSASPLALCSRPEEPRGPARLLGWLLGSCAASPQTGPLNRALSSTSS
Procedure, shortened: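 Membranes from HEK293 cells stably expressing recombinant human DP2 incubated 60 min at room temperature with 1 nM [3H]PGD2 and compound in pH 7.4 Hepes/MnCl2/EDTA buffer, ± 0.2% human serum albumin. Bound radioactivity measured after filtration; non-specific binding defined with 10 μM PGD2. IC50 from titration curves.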

SMILES | IC50 [1] | IC50 [2]
CCN(Cc1cc(NS(=O)(=O)c2ccc(Cl)cc2)ccc1-c1cc(CC(=O)O)ccc1OC)C(=O)OCc1ccccc1 [Compound 1-156, [2′-[(Benzyloxycarbonyl-ethyl-amino)-methyl]-4′-(4-chloro-benzenesulfonylamino)-6-methoxy-biphenyl-3-yl]-acetic acid] | 1000 to 30000 nM | < 300 nM
CCN(Cc1cc(C(F)(F)F)ccc1-c1cc(CC(=O)O)cc(C(F)(F)F)c1)C(C)=O [Compound 1-138, {2′-[(Acetyl-ethyl-amino)-methyl]-5,4′-bis-trifluoromethyl-biphenyl-3-yl}-acetic acid] | 1000 to 30000 nM | < 300 nM
CCN(Cc1ccc(C)cc1-c1cc(CC(=O)O)ccc1OC)C(=O)OCc1ccc(F)cc1 [Compound 1-169, (2′-{[Ethyl-(4-fluoro-benzyloxycarbonyl)-amino]-methyl}-6-methoxy-5′-methyl-biphenyl-3-yl)-acetic acid] | 1000 to 30000 nM | < 300 nM
CCN(Cc1cc(C(F)(F)F)ccc1-c1cc(CC(=O)O)ccc1OC)C(=O)CN1CCCC1 [Compound 1-151, (2′-{[Ethyl-(2-pyrrolidin-1-yl-acetyl)-amino]-methyl}-6-methoxy-4′-trifluoromethyl-biphenyl-3-yl)-acetic acid] | 1000 to 30000 nM | 1000 to 30000 nM
COc1ccc(CC(=O)O)cc1-c1ccc(C(F)(F)F)cc1CN(C(C)=O)[C@@H]1c2ccccc2C[C@@H]1OC [Compound 1-16, (2′-{[Acetyl-((1R,2S)-2-methoxy-indan-1-yl)-amino]-methyl}-6-methoxy-4′-trifluoromethyl-biphenyl-3-yl)-acetic acid] | 1000 to 30000 nM | 1000 to 30000 nM
CCN(C(C)=O)C(C)c1cc(C(F)(F)F)ccc1-c1cc(CC(=O)O)ccc1OC (stereo not shown) [Compound 1-22, {2′-[1-(Acetyl-ethyl-amino)-ethyl]-6-methoxy-4′-trifluoromethyl-biphenyl-3-yl}-acetic acid] | 1000 to 30000 nM | 1000 to 30000 nM
CCN(Cc1cc(C(F)(F)F)ccc1-c1cc(Cl)cc(CC(=O)O)c1)C(C)=O [Compound 1-137, {2′-[(Acetyl-ethyl-amino)-methyl]-5-chloro-4′-trifluoromethyl-biphenyl-3-yl}-acetic acid] | 1000 to 30000 nM | < 300 nM
CCN(Cc1ccc(C)cc1-c1cc(CC(=O)O)ccc1OC)C(=O)NCc1ccccc1 [Compound 1-173, [2′-(3-Benzyl-1-ethyl-ureidomethyl)-6-methoxy-5′-methyl-biphenyl-3-yl]-acetic acid] | 1000 to 30000 nM | < 300 nM
CCN(Cc1cc(C(F)(F)F)ccc1-c1cc(Cl)cc(CC(=O)O)c1)C(=O)C1CC1 [Compound 1-135, {5-Chloro-2′-[(cyclopropanecarbonyl-ethyl-amino)-methyl]-4′-trifluoromethyl-biphenyl-3-yl}-acetic acid] | 1000 to 30000 nM | < 300 nM
CCN(Cc1cc(C(F)(F)F)ccc1-c1cc(CC#N)ccc1OC)C(=O)C1CC1 [Compound 2-3, Cyclopropanecarboxylic acid (5′-cyanomethyl-2′-methoxy-4-trifluoromethyl-biphenyl-2-ylmethyl)-ethyl-amide] | 1000 to 30000 nM | > 30000 nM
CCN(Cc1cc(C(F)(F)F)ccc1-c1cc(CC(=O)O)ccc1OC)C(=O)NC1CC1 [Compound 1-182] | 1000 to 30000 nM | < 300 nM
CCN(Cc1cc(C(F)(F)F)ccc1-c1cc(Cl)cc(CC(=O)O)c1)C(=O)NCc1ccccc1 [Compound 1-157, [2′-(3-Benzyl-1-ethyl-ureidomethyl)-5-chloro-4′-trifluoromethyl-biphenyl-3-yl]-acetic acid] | 1000 to 30000 nM | < 300 nM
CCN(Cc1cc(C(F)(F)F)ccc1-c1cc(CC(N)=O)ccc1OC)C(=O)C1CC1 [Compound 2-8, Cyclopropanecarboxylic acid (5′-carbamoylmethyl-2′-methoxy-4-trifluoromethyl-biphenyl-2-ylmethyl)-ethyl-amide] | 1000 to 30000 nM | 1000 to 30000 nM
CCN(Cc1cc(C(F)(F)F)ccc1-c1cc(CC(=O)O)ccc1OC)/C(=N/C#N)NCC1CC1 [Compound 1-146, [2′-(N′-Cyano-N″-cyclopropylmethyl-N-ethyl-guanidinomethyl)-6-methoxy-4′-trifluoromethyl-biphenyl-3-yl]-acetic acid] | 1000 to 30000 nM | < 300 nM

The remaining lines, values ahead:

IC50 [1] | IC50 [2] | SMILES
1000 to 30000 nM | < 300 nM | CCN(Cc1cc(C(F)(F)F)ccc1-c1cc(CC(=O)O)ccc1OC)C(=O)Cn1cccn1 [Compound 1-148, (2′-{[Ethyl-(2-pyrazol-1-yl-acetyl)-amino]-methyl}-6-methoxy-4′-trifluoromethyl-biphenyl-3-yl)-acetic acid]
300 to 1000 nM | < 300 nM | CCN(Cc1ccc(C(F)(F)F)cc1-c1cc(CC(=O)O)ccc1OC)C(=O)OCc1ccc(Cl)cc1 [Compound 1-174, (2′-{[(4-Chloro-benzyloxycarbonyl)-ethyl-amino]-methyl}-6-methoxy-5′-trifluoromethyl-biphenyl-3-yl)-acetic acid]
300 to 1000 nM | < 300 nM | CCN(Cc1cc(C(F)(F)F)ccc1-c1cc(CC(=O)O)ccc1-c1ccccc1)C(=O)OCc1ccccc1 [Compound 1-144, {2″-[(Benzyloxycarbonyl-ethyl-amino)-methyl]-4″-trifluoromethyl-[1,1′;2′,1″]terphenyl-4′-yl}-acetic acid]
1000 to 30000 nM | 300 to 1000 nM | CCN(Cc1cc(C(F)(F)F)ccc1-c1cc(C(C)(C)C(=O)O)ccc1OC)C(=O)OCc1ccccc1 [Compound 1-116, 2-{2′-[(Benzyloxycarbonyl-ethyl-amino)-methyl]-6-methoxy-4′-trifluoromethyl-biphenyl-3-yl}-2-methyl-propionic acid]
1000 to 30000 nM | 1000 to 30000 nM | CCN(Cc1cc(C(F)(F)F)ccc1-c1cc(CC(N)=O)ccc1OC)C(=O)OCc1ccccc1 [Compound 2-6, (5′-Carbamoylmethyl-2′-methoxy-4-trifluoromethyl-biphenyl-2-ylmethyl)-ethyl-carbamic acid benzyl ester]
1000 to 30000 nM | 1000 to 30000 nM | CCN(Cc1cc(C(F)(F)F)ccc1-c1cc(C(F)(F)C(=O)O)ccc1OC)C(=O)OCc1ccccc1 [Compound 1-132, {2′-[(Benzyloxycarbonyl-ethyl-amino)-methyl]-6-methoxy-4′-trifluoromethyl-biphenyl-3-yl}-difluoro-acetic acid]
1000 to 30000 nM | < 300 nM | CCN(Cc1cc(C(F)(F)F)ccc1-c1cc(CC(=O)O)ccc1OC)/C(=N/C#N)NCc1ccccn1 [Compound 1-147, [2′-(N′-Cyano-N-ethyl-N″-pyridin-2-ylmethyl-guanidinomethyl)-6-methoxy-4′-trifluoromethyl-biphenyl-3-yl]-acetic acid]
1000 to 30000 nM | 1000 to 30000 nM | O=C(O)Cc1ccc(F)c(-c2ccc(C(F)(F)F)cc2CN(CC(F)(F)F)C(=O)OCc2ccccc2)c1 [Compound 1-49, (2′-{[Benzyloxycarbonyl-(2,2,2-trifluoro-ethyl)-amino]-methyl}-6-fluoro-4′-trifluoromethyl-biphenyl-3-yl)-acetic acid]
1000 to 30000 nM | < 300 nM | CCN(Cc1cc(C(F)(F)F)ccc1-c1cc(CC(=O)O)ccc1OC)C(=O)NCc1ccccn1 [Compound 1-139, [2′-(1-Ethyl-3-pyridin-2-ylmethyl-ureidomethyl)-6-methoxy-4′-trifluoromethyl-biphenyl-3-yl]-acetic acid]
1000 to 30000 nM | 1000 to 30000 nM | CCN(Cc1cc(C(F)(F)F)ccc1-c1cc(C(F)(F)C(=O)O)ccc1OC)C(C)=O [Compound 1-91, {2′-[(Acetyl-ethyl-amino)-methyl]-6-methoxy-4′-trifluoromethyl-biphenyl-3-yl}-difluoro-acetic acid]
300 to 1000 nM | < 300 nM | CCN(Cc1ccc(C(F)(F)F)cc1-c1cc(CC(=O)O)ccc1OC)C(=O)OCc1ccc(F)cc1 [Compound 1-168, (2′-{[Ethyl-(4-fluoro-benzyloxycarbonyl)-amino]-methyl}-6-methoxy-5′-trifluoromethyl-biphenyl-3-yl)-acetic acid]
1000 to 30000 nM | < 300 nM | CCN(Cc1cc(C(F)(F)F)ccc1-c1cc(CC(=O)O)ccc1OC)C(=O)NCc1ccc(Cl)cc1 [Compound 1-140, {2′-[3-(4-Chloro-benzyl)-1-ethyl-ureidomethyl]-6-methoxy-4′-trifluoromethyl-biphenyl-3-yl}-acetic acid]
